Measurements reported in patent US20220143148A1, “COMPOSITIONS AND METHODS FOR MODULATING CGRP SIGNALING TO REGULATE INTESTINAL INNATE LYMPHOID CELLS” (The Broad Institute, Inc., priority 2019, published 2022).

Test system: KLRG1+ ILC2s
Assay: IL-25-induced in vivo ILC2 activation model
Design: species or system mouse
Text: Intraperitoneal administration of α-CGRP impaired IL-25-induced expansion of KLRG1^+ ILC2s (FIGS. 5B and 12A), consistent with the in vitro results. Recent work has shown that intestinal KLRG1^+ ILC2s can migrate to mesenteric lymph nodes (mLNs) and other tissues during inflammation via sphingosine 1-phosphate (S1P)-mediated chemotaxis (Huang et al., 2018). To determine whether α-CGRP primarily impacts intestinal or mLN ILC2s, Applicants relied on the fact that intestinal GATA3^+ ILC2s are generally phenotypically KLRG1^+ST2^− (data not shown), whereas mLN ILC2s are mainly ST2^+ at steady state (FIG. 5C). IL-25 administration increased the frequency of both KLRG1^+ST2^− inflammatory ILC2s and ST2^+ ILC2s in mLNs (FIGS. 5C-E and 12B). […] Thus, α-CGRP preferentially regulates the response of intestinal KLRG1^+ST2^− ILC2s. […] Taken together, α-CGRP antagonized expansion of intestinal KLRG1^+ ILC2s in two different type 2 inflammatory models.
To activate ILC2s in vivo, 200 ng of IL-25 was intraperitoneally injected into 7-10 weeks old mice daily for two days. 1 μg α-CGRP was injected together as noted.
Flow cytometry and cell sorting. Cells were washed and suspended in MACS buffer (pH 7.4; PBS plus 2% FCS and 2 mM EDTA). Nonspecific antibody binding was blocked with CD16/CD32 (2.4G2) antibody for 15 min on ice. Cells were then stained with antibody cocktails for 30 min at 4° C. Lineage-positive cells were excluded for analyzing ILCs by staining for CD3ε (145-2C11), CD5 (53-7.3), CD19 (6D5), CD11b (M1/70), CD8 (53-6.7), CD11c (N418), Gr-1 (RB6-8C5), TCRγδ (eBioGL3 (GL-3, GL3)) and TCRβ (H57-597). To analyze mast cells, lineage-positive cells were excluded by staining for CD3ε, CD5, CD19, CD11c and SiglecF (E50-2440). For surface staining, antibodies for KLRG1 (2F1), CD45 (30-F11), CD127 (A7R34), CCR6 (29-2L17), NKp46 (29A1.4), CD90.2 (53-2.1), FcεRI (Mar-1), IgD (11-26c.2a) and ST2 (DJ8) were used. For intracellular staining, cells were fixed and permeabilized using the Foxp3 transcription factor staining buffer set, followed by staining with anti-GATA-3 (TWAJ) or anti-RORγt (B2D) antibodies. Dead cells were excluded with 7-AAD or Fixable Viability Dye eFluor 780. Flow cytometry was performed on Cytoflex (Beckman Coulter) and analyzed with FlowJo software. Sorting was performed with the SH800S Cell Sorter (Sony Biotechnology).
Immunofluorescence staining and imaging. The small intestines were fixed in 2% PFA, embedded in O.C.T. Compound and sliced into 10 μm by frozen section. The slides were blocked with 0.1% Triton X-100, 2% FCS and donkey serum. […] The images were analyzed with ImageJ.

α-CGRP: neuropeptide alpha-calcitonin gene-related peptide, encoded by exon 5 of Calca; administered as peptide
frequency of KLRG1+ST2− ILC2s in mLNs (IL-25 co-administered with α-CGRP): reduced | IL-25-induced expansion of KLRG1+ ILC2s (intraperitoneal α-CGRP with IL-25, small intestine, IF): impaired
